Key:
Assay in all cases: IC50 for competition of protein binding to Kinobeads
Details in all cases: assay detail: Kinobeads competition in P. falciparum blood-stage lysate
UniProt Q8IBK8 = target: UniProt Q8IBK8
UniProt Q8I5X7 = target: UniProt Q8I5X7
UniProt Q8III6 = target: UniProt Q8III6
UniProt Q8IIH7 = target: UniProt Q8IIH7
UniProt Q8I5D4 = target: UniProt Q8I5D4
UniProt Q8ILK1 = target: UniProt Q8ILK1
UniProt Q8I5H9 = target: UniProt Q8I5H9
UniProt Q8I534 = target: UniProt Q8I534
UniProt Q8I616 = target: UniProt Q8I616
UniProt Q7KQL8 = target: UniProt Q7KQL8
UniProt Q7KQL8, sequence (Q7KQL8 whole entry): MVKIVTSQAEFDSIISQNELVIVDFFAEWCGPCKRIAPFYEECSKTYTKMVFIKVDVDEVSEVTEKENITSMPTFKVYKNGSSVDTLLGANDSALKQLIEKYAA

UniProt Q7KQL9 = target: UniProt Q7KQL9
UniProt Q7KQL9, sequence (Q7KQL9 whole entry): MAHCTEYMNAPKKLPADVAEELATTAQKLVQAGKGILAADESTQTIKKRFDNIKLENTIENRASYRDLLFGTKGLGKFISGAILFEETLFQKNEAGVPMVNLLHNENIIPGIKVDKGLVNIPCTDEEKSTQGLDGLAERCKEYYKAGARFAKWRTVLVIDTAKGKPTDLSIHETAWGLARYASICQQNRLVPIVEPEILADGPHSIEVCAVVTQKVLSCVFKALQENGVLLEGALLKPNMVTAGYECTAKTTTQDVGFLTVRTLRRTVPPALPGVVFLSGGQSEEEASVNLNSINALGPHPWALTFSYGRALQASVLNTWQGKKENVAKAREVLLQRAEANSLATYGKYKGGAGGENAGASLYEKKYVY

UniProt Q8IFM9 = target: UniProt Q8IFM9
UniProt C6KTC7 = target: UniProt C6KTC7
UniProt Q8IKA0 = target: UniProt Q8IKA0
UniProt Q8ILI6 = target: UniProt Q8ILI6
UniProt Q8ILI6, sequence (Q8ILI6 whole entry): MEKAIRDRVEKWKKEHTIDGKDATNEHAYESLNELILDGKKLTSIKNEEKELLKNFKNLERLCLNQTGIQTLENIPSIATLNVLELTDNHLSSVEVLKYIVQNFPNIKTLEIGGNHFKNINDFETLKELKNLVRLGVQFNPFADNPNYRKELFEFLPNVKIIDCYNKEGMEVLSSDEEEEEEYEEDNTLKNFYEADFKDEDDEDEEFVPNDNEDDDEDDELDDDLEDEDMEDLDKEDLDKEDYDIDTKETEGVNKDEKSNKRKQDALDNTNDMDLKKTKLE

UniProt P27362 = target: UniProt P27362
UniProt P27362, sequence (P27362 whole entry): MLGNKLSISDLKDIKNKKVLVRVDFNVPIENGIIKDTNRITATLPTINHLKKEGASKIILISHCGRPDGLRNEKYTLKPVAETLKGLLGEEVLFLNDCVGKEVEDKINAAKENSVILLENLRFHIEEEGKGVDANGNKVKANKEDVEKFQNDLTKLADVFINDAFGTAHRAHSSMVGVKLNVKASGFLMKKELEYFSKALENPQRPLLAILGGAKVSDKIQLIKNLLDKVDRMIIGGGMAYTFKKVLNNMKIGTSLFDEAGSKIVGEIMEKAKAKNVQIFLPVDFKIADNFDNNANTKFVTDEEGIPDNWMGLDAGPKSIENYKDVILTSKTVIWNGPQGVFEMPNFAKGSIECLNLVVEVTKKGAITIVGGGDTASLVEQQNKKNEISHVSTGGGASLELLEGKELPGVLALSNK

UniProt Q8IFN9 = target: UniProt Q8IFN9
UniProt Q8IDX8 = target: UniProt Q8IDX8
UniProt Q8IE99 = target: UniProt Q8IE99
UniProt Q8IJC6 = target: UniProt Q8IJC6
UniProt Q8I488 = target: UniProt Q8I488
UniProt Q8IKS6 = target: UniProt Q8IKS6
UniProt Q8II71 = target: UniProt Q8II71
UniProt Q8IK92 = target: UniProt Q8IK92
UniProt Q8IDD9 = target: UniProt Q8IDD9
UniProt Q8IB31 = target: UniProt Q8IB31
UniProt Q8IIR9 = target: UniProt Q8IIR9
UniProt Q8IAU0 = target: UniProt Q8IAU0
UniProt Q8ILB6 = target: UniProt Q8ILB6
UniProt Q8IBL5 = target: UniProt Q8IBL5
UniProt O97282 = target: UniProt O97282
UniProt Q8I4Z4 = target: UniProt Q8I4Z4
UniProt Q8IM27 = target: UniProt Q8IM27
UniProt Q8IL53 = target: UniProt Q8IL53
UniProt O96217 = target: UniProt O96217
UniProt Q8I0U8 = target: UniProt Q8I0U8
UniProt Q8I0U8, sequence (Q8I0U8 whole entry): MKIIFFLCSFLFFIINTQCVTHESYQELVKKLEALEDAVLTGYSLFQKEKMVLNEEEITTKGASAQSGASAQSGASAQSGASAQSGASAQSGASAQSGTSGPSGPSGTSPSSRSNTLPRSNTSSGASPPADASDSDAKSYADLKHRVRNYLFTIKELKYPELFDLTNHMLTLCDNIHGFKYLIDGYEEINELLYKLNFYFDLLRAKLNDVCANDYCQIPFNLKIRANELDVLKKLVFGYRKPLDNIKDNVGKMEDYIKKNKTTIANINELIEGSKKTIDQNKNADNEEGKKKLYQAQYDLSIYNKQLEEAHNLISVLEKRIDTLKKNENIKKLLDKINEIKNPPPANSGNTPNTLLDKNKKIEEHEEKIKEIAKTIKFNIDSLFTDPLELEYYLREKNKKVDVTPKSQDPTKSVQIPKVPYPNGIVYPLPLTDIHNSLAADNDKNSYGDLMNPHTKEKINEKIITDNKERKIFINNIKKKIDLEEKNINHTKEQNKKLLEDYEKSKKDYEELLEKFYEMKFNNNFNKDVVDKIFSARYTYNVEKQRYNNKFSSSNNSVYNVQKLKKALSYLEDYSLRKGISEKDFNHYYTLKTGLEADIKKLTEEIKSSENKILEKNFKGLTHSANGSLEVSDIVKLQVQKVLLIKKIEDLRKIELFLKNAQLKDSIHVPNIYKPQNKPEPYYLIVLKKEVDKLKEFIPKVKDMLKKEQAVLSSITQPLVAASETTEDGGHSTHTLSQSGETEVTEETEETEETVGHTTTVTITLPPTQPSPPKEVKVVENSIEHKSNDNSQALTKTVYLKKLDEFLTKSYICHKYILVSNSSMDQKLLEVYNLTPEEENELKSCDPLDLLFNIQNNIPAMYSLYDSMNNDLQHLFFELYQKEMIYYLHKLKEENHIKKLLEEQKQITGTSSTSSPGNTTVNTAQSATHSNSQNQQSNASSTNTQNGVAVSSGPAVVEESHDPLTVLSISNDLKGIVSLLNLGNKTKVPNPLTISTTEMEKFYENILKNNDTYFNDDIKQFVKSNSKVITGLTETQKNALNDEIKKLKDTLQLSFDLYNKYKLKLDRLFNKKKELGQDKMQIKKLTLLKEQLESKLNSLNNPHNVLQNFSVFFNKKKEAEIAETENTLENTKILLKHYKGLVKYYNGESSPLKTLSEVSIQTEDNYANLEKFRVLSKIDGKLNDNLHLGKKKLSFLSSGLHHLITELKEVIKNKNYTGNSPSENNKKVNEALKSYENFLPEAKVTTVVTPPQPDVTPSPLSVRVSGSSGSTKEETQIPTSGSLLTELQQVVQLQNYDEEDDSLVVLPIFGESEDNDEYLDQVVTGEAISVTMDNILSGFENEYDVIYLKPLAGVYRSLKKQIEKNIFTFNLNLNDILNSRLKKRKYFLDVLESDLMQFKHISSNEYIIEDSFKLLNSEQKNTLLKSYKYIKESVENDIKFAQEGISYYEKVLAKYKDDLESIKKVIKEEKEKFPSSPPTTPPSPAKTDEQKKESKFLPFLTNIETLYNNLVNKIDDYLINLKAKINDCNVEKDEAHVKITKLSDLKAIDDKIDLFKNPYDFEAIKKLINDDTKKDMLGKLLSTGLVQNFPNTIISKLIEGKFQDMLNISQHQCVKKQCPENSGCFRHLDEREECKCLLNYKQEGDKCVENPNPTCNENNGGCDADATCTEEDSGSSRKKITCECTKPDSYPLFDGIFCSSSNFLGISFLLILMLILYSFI

UniProt Q8IM10 = target: UniProt Q8IM10
UniProt Q8I1T4 = target: UniProt Q8I1T4
UniProt Q8I323 = target: UniProt Q8I323
UniProt Q8II60 = target: UniProt Q8II60
UniProt C0H4K6 = target: UniProt C0H4K6
UniProt C0H5A0 = target: UniProt C0H5A0
UniProt Q8IDZ8 = target: UniProt Q8IDZ8
UniProt Q8IJA4 = target: UniProt Q8IJA4
UniProt Q8IJ74 = target: UniProt Q8IJ74
UniProt Q8IJN8 = target: UniProt Q8IJN8
UniProt C0H4R8 = target: UniProt C0H4R8
UniProt Q8IKV8 = target: UniProt Q8IKV8
UniProt Q8IL88 = target: UniProt Q8IL88
UniProt Q8IJ60 = target: UniProt Q8IJ60
UniProt Q8IKB0 = target: UniProt Q8IKB0
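Also: native unpurified kinases from lysate captured on beads bearing immobilized kinase inhibitors, with bead-bound kinases quantified by mass spectrometry across compound doses.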

O=c1[nH]c2ccc(Cl)cc2c(NC2CN3CCC2CC3)c1-c1nc2ccccc2[nH]1 (stereo unspecified) [CHIR-124]
IC50 (UniProt Q8IBK8): > 20 µM | IC50 (UniProt Q8I5X7): > 20 µM | IC50 (UniProt Q8III6): > 20 µM | IC50 (UniProt Q8IIH7): > 20 µM | IC50 (UniProt Q8I5D4): 7.85 µM | IC50 (UniProt Q8ILK1): > 20 µM | IC50 (UniProt Q8I5H9): 14 µM | IC50 (UniProt Q8I534): > 20 µM | IC50 (UniProt Q8I616): > 20 µM | IC50 (UniProt Q7KQL8): > 20 µM | IC50 (UniProt Q7KQL9): > 20 µM | IC50 (UniProt Q8IFM9): > 20 µM | IC50 (UniProt C6KTC7): > 20 µM | IC50 (UniProt Q8IKA0): > 20 µM | IC50 (UniProt Q8ILI6): > 20 µM | IC50 (UniProt P27362): > 20 µM | IC50 (UniProt Q8IFN9): > 20 µM | IC50 (UniProt Q8IDX8): > 20 µM | IC50 (UniProt Q8IE99): > 20 µM | IC50 (UniProt Q8IJC6): > 20 µM | IC50 (UniProt Q8I488): > 20 µM | IC50 (UniProt Q8IKS6): > 20 µM | IC50 (UniProt Q8II71): > 20 µM | IC50 (UniProt Q8IK92): > 20 µM | IC50 (UniProt Q8IDD9): > 20 µM | IC50 (UniProt Q8IB31): > 20 µM | IC50 (UniProt Q8IIR9): > 20 µM | IC50 (UniProt Q8IAU0): > 20 µM | IC50 (UniProt Q8ILB6): > 20 µM | IC50 (UniProt Q8IBL5): > 20 µM | IC50 (UniProt O97282): > 20 µM | IC50 (UniProt Q8I4Z4): > 20 µM | IC50 (UniProt Q8IM27): > 20 µM | IC50 (UniProt Q8IL53): > 20 µM | IC50 (UniProt O96217): > 20 µM | IC50 (UniProt Q8I0U8): > 20 µM | IC50 (UniProt Q8IM10): > 20 µM | IC50 (UniProt Q8I1T4): > 20 µM | IC50 (UniProt Q8I323): > 20 µM | IC50 (UniProt Q8II60): > 20 µM | IC50 (UniProt C0H4K6): > 20 µM | IC50 (UniProt C0H5A0): > 20 µM | IC50 (UniProt Q8IDZ8): > 20 µM | IC50 (UniProt Q8IJA4): > 20 µM | IC50 (UniProt Q8IJ74): > 20 µM | IC50 (UniProt Q8IJN8): > 20 µM | IC50 (UniProt C0H4R8): 5.36 µM | IC50 (UniProt Q8IKV8): > 20 µM | IC50 (UniProt Q8IL88): > 20 µM | IC50 (UniProt Q8IJ60): > 20 µM | IC50 (UniProt Q8IKB0): > 20 µM

From the supplement of paper PMC13386468
